Assay [1] concerns E. coli RNase P RNA, M1 RNA. In words: Inhibition of bacterial RNase P activity, IC50 determination (cleavage of pATSerUG by M1 RNA). To be noted: NI = No inhibition. Format: biochemical.
Assay [2] deals with Escherichia coli (ATCC25922). Kind of assay: MIC, broth microdilution (CLSI), Escherichia coli ATCC25922. The settings on record: ATCC25922, read-out: E. coli MIC, Table 15, NI = No inhibition. On the technique in general: In broth dilution the organism is exposed to a series of concentrations in liquid medium.
Assay [3] relates to Staphylococcus aureus (ATCC25923). Kind of assay: MIC, broth microdilution (CLSI), Staphylococcus aureus ATCC25923. To be noted: ATCC25923, read-out: S. aureus ("Clinical") MIC.
Procedure: Initial minimal inhibitory concentration (MIC) tests were made on two bacterial strains: • Escherichia coli (ATCC25922) • Staphylococcus aureus (ATCC25923).
Minimal Inhibitory Concentration (MIC)
MIC values were determined using the standard broth microdilution procedure based on the guidelines by the Clinical and Laboratory Standards Institute (CLSI). Briefly, the compounds were dissolved in DMSO to 10 mM. They were diluted in cation-adjusted Mueller-Hinton broth (CAMHB) to four times the highest concentration tested. A serial 2-fold dilution in CAMHB was done in microdilution plates. The inoculum of bacterial strain to be tested was prepared by making a suspension of colonies from an 18 to 24 hours old plate in CAMHB. The inoculum was diluted so that, after inoculation, each well contained approximately 5×10^5 CFU/mL. To a volume of 50 μl compound in CAMHB an equal volume of inoculum was added. The tray was sealed in a plastic bag and incubated at 35° C. for 16 to 20 hours. To aid in the detection of growth the dye resazurin was added to a final concentration 0.001% and incubated at room temperature for 1 h. Reduction of resazurin, and therefore bacterial growth, was seen as a change from blue to pink.

Each structure is given as a SMILES string. Values after ≈ are worked out from the molar mass of the structure shown. Where only a bound is given, the exact number is not on record here.

As usually defined, the IC50 is the concentration that gives 50% inhibition. The low end stands for greater potency, the high end for weaker potency. In general, MIC refers to the lowest concentration that inhibits growth of the organism. As to `NCCCNC1CCCC(C(=O)Nc2cc(C(F)(F)F)cc3c2Nc2ccccc2S3)C1` (stereo not drawn) [compound 162, 3-((3-aminopropyl)amino)-N-(3-(trifluoromethyl)-10H-phenothiazin-1-yl)cyclohexane-carboxamide], it took 50 µM to reach half-maximal inhibition in assay [1] (IC50). For the same molecule, the MIC in assay [2] was above 100 µg/mL; in assay [3] it was 30 µg/mL (≈ 64.6 µM).
In turn, `NCCNC1CCCC(C(=O)Nc2cc(C(F)(F)F)cc3c2Nc2ccccc2S3)C1` (stereo not drawn) [compound 163, 3-((2-aminoethyl)amino)-N-(3-(trifluoromethyl)-10H-phenothiazin-1-yl)cyclohexane-carboxamide] had an IC50 in assay [1] of 72 µM. Further, the MIC in assay [2] and in assay [3] was 14 µg/mL (≈ 31.1 µM) in each case.
Take `NC1CCCC(CC(=O)Nc2cc(C(F)(F)F)cc3c2Nc2ccccc2S3)C1` (stereo not drawn) [compound 167, 2-(3-aminocyclohexyl)-N-(3-(trifluoromethyl)-10H-phenothiazin-1-yl)acetamide]: the IC50 in assay [1] was above 100 µM. Besides, the results for the MIC in assay [2] and in assay [3] were 27 µg/mL (≈ 64.1 µM) and 13 µg/mL (≈ 30.8 µM), respectively.
The like results for `FC(F)(F)c1cc(NC2CCNCC2)c2c(c1)Oc1ccccc1N2` [compound 169, N-(piperidin-4-yl)-3-(trifluoromethyl)-10H-phenoxazin-1-amine] were, in that order, 36 µM, 45 µg/mL (≈ 129 µM) and 11 µg/mL (≈ 31.5 µM).
For `NC1CC(N)CC(C(=O)Nc2cc(C(F)(F)F)cc3c2Nc2ccccc2S3)C1` (stereo not drawn) [compound 170, 3,5-diamino-N-(3-(trifluoromethyl)-10H-phenothiazin-1-yl)cyclohexane-carboxamide] the same measures were 59 µM, 7 µg/mL (≈ 16.6 µM) and 3 µg/mL (≈ 7.1 µM).
For `N[C@@H]1CCC[C@@H](CNc2cc(C(F)(F)F)cc3c2Nc2ccccc2S3)C1` [compound 171, N-(((1R,3R)-3-aminocyclohexyl)methyl)-3-(trifluoromethyl)-10H-phenothiazin-1-amine] the same measures were 42 µM, 13 µg/mL (≈ 33 µM) and 3 µg/mL (≈ 7.62 µM).
In the case of `FC(F)(F)c1cc(NC2CCCNC2)c2c(c1)Sc1ccccc1N2` (stereo not drawn) [compound 172, N-(piperidin-3-yl)-3-(trifluoromethyl)-10H-phenothiazin-1-amine], in assay [1], the IC50 was 27 µM. Further, the MIC in assay [2] amounted to 23 µg/mL (≈ 62.9 µM); in assay [3] it was 6 µg/mL (≈ 16.4 µM).
As for `FC(F)(F)c1cc(NCC2CCNCC2)c2c(c1)Sc1ccccc1N2` [compound 173, N-(piperidin-4-ylmethyl)-3-(trifluoromethyl)-10H-phenothiazin-1-amine], in assay [1], the IC50 amounted to 59 µM. The MIC is above 100 µg/mL in assay [2] and 24 µg/mL (≈ 63.2 µM) in assay [3].
The like results for `FC(F)(F)c1cc(NC2CCNC2)c2c(c1)Sc1ccccc1N2` (stereo not drawn) [compound 174, N-(pyrrolidin-3-yl)-3-(trifluoromethyl)-10H-phenothiazin-1-amine] were, in that order, 50 µM, 11 µg/mL (≈ 31.3 µM) and 3 µg/mL (≈ 8.54 µM).
The molecule `NC1CC(C(=O)Nc2cc(C(F)(F)F)cc3c2Nc2ccccc2S3)C1` (stereo not drawn) [compound 175, 3-amino-N-(3-(trifluoromethyl)-10H-phenothiazin-1-yl)cyclobutane-carboxamide] displayed an IC50 in assay [1] of 80 µM. Also, the MIC is 49 µg/mL (≈ 129 µM) in assay [2] and 24 µg/mL (≈ 63.3 µM) in assay [3].
The like results for `NC1CCC(Nc2cc(C(F)(F)F)cc3c2Nc2ccccc2S3)CC1` (stereo not drawn) [compound 180, N1-(3-(trifluoromethyl)-10H-phenothiazin-1-yl)cyclohexane-1,4-diamine] were, in that order, 87 µM, 14 µg/mL (≈ 36.9 µM) and 7 µg/mL (≈ 18.4 µM).
For `CN(C)CCCN1c2ccccc2Sc2cc(-c3cc4cc(CN)ccc4[nH]3)ccc21` [compound 181, 3-(3-(5-(aminomethyl)-1H-indol-2-yl)-10H-phenothiazin-10-yl)-N,N-dimethylpropan-1-amine] the same measures were above 100 µM, 27 µg/mL (≈ 63 µM) and 7 µg/mL (≈ 16.3 µM).

For the origin of these results see patent US11130741B2 (Bioimics AB, priority 2016, dated 2021).
